Results as given in ChEMBL document CHEMBL6092219, “Structure-Based Design of Covalent SARS-CoV-2 Papain-like Protease Inhibitors” (J Med Chem, 2024).
pEC50: −log10 of the molar value.

Experiments:
SARS-CoV-2 [1] = experiment: Antiviral activity against nirmatrelvir-resistant SARS-CoV-2 harboring rL50F/E166A/L167F mutant infected in human Caco-2 cells expressing hTMPRSS/hACE2 incubated for 48 hrs in presence of CP-100356 by crystal violet staining based analysis; type: functional, organism-based, Severe acute respiratory syndrome coronavirus 2
SARS-CoV-2 [2] = experiment: Selectivity ratio of EC50 for nirmatrelvir-resistant SARS-CoV-2 harboring rL50F/E166A/L167F mutant infected in human Caco-2 cells expressing hTMPRSS/hACE2 to EC50 for wild-type SARS-CoV-2 WA1 infected in human Caco-2 cells expressing hTMPRSS/hACE2; type: functional

CC(C)(C)[C@H](NC(=O)C(F)(F)F)C(=O)N1C[C@H]2[C@@H]([C@H]1C(=O)N[C@H](C#N)C[C@@H]1CCNC1=O)C2(C)C
pEC50 (SARS-CoV-2 [1]): 6.30 | Ratio EC50 (SARS-CoV-2 [2]): 14.8
